Test results as given in the supplement of paper PMC4862054.

Columns and labels:
Details in all cases: incubation time: 72 h
BT-474 [1] = experiment: normalised response (% of control), CellTox Green; higher = less cell death (100 = DMSO, 0 = benzethonium chloride kill control)
In short: (§1)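 Breast cancer cell lines (20 µl suspension) were seeded into 384-well plates holding compound at 5 concentrations in 10-fold steps over a compound-specific 10,000-fold range, then incubated 72 h. CellTox Green fluorescence (485/520 nm) was read first, then CellTiter-Glo luminescence after 10 min at room temperature. Each plate was normalised to 0.1 % DMSO (100) and a positive kill control (0). Each value is the normalised signal at a single concentration of the series.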

BT-549 [2] = experiment: as above
In short: as §1

CAL-120 [3] = experiment: as above
In short: as §1

CAL-148 [4] = experiment: as above
In short: as §1

CAL-51 [5] = experiment: as above
In short: as §1

CAL-85-1 [6] = experiment: as above
In short: as §1

DU-4475 [7] = experiment: as above
In short: as §1

HCC1143 [8] = experiment: as above
In short: as §1

HCC1599 [9] = experiment: as above
In short: as §1

HCC1937 [10] = experiment: as above
In short: as §1

HDQ-P1 [11] = experiment: as above
In short: as §1

Hs578T [12] = experiment: as above
In short: as §1

MCF-10A [13] = experiment: as above
In short: as §1

MDA-MB-231 [14] = experiment: as above
In short: as §1

MDA-MB-436 [15] = experiment: as above
In short: as §1

MDA-MB-453 [16] = experiment: as above
In short: as §1

MDA-MB-468 [17] = experiment: as above
In short: as §1

MFM-223 [18] = experiment: as above
In short: as §1

BT-474 [19] = experiment: normalised response (% of control), CellTiter-Glo; higher = more viable cells (100 = DMSO, 0 = benzethonium chloride kill control)
Method: (§2)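 DSRT, 72 h incubation, CellTox Green / CellTiter-Glo readout. Signal is normalised to DMSO and benzethonium chloride controls. Value is the normalised response at dose 3.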

BT-549 [20] = experiment: as above
Method: as §2

CAL-120 [21] = experiment: as above
Method: as §2

CAL-148 [22] = experiment: as above
Method: as §2

CAL-51 [23] = experiment: as above
Method: as §2

CAL-85-1 [24] = experiment: as above
Method: as §2

DU-4475 [25] = experiment: as above
Method: as §2

HCC1143 [26] = experiment: as above
Method: as §2

HCC1599 [27] = experiment: as above
Method: as §2

HCC1937 [28] = experiment: as above
Method: as §2

HDQ-P1 [29] = experiment: as above
Method: as §2

Hs578T [30] = experiment: as above
Method: as §2

MCF-10A [31] = experiment: as above
Method: as §2

MDA-MB-231 [32] = experiment: as above
Method: as §2

MDA-MB-436 [33] = experiment: as above
Method: as §2

MDA-MB-453 [34] = experiment: as above
Method: as §2

MDA-MB-468 [35] = experiment: as above
Method: as §2

MFM-223 [36] = experiment: as above
Method: as §2

SK-BR-3 = experiment: as above
Method: as §2

Structure (SMILES)	normalised response (BT-474 [1])	normalised response (BT-549 [2])	normalised response (CAL-120 [3])	normalised response (CAL-148 [4])	normalised response (CAL-51 [5])	normalised response (CAL-85-1 [6])	normalised response (DU-4475 [7])	normalised response (HCC1143 [8])	normalised response (HCC1599 [9])	normalised response (HCC1937 [10])	normalised response (HDQ-P1 [11])	normalised response (Hs578T [12])	normalised response (MCF-10A [13])	normalised response (MDA-MB-231 [14])	normalised response (MDA-MB-436 [15])	normalised response (MDA-MB-453 [16])	normalised response (MDA-MB-468 [17])	normalised response (MFM-223 [18])	normalised response (BT-474 [19])	normalised response (BT-549 [20])	normalised response (CAL-120 [21])	normalised response (CAL-148 [22])	normalised response (CAL-51 [23])	normalised response (CAL-85-1 [24])	normalised response (DU-4475 [25])	normalised response (HCC1143 [26])	normalised response (HCC1599 [27])	normalised response (HCC1937 [28])	normalised response (HDQ-P1 [29])	normalised response (Hs578T [30])	normalised response (MCF-10A [31])	normalised response (MDA-MB-231 [32])	normalised response (MDA-MB-436 [33])	normalised response (MDA-MB-453 [34])	normalised response (MDA-MB-468 [35])	normalised response (MFM-223 [36])	normalised response (SK-BR-3)
COc1ccc(-c2cc3c(C)nc(N)nc3n([C@H]3CC[C@H](OCCO)CC3)c2=O)cn1 (100 nM)	94.4%	112%	95.7%	80.1%	85.1%	91.3%	96.2%	66.1%	90.3%	107%	88.6%	89.6%	85.6%	37.5%	97.9%	98.1%	31%	96.2%	67.2%	69.5%	67.7%	74.5%	53.4%	68.9%	83.2%	76.8%	88.3%	74.5%	66.3%	73.7%	58%	64.8%	77%	55.7%	68.8%	72.3%	42%
CC/C(=C(\c1ccc(O)cc1)c1ccc(OCCN(C)C)cc1)c1ccccc1 [4-hydroxytamoxifen] (100 nM)	105%	104%	98.8%	99.1%	98.1%	113%	108%	115%	114%	89.2%	87.3%	50.3%	93%	117%	108%	111%	106%	106%	99.1%	107%	105%	99.9%	99%	105%	104%	96.2%	91.5%	95%	95.9%	98%	106%	100%	94.9%	111%	93.2%	99.1%	101%
O=C(Nc1c[nH]nc1-c1nc2ccc(CN3CCOCC3)cc2[nH]1)NC1CC1 [AT9283] (10 nM)	102%	105%	97.7%	106%	61.2%	102%	101%	108%	115%	123%	115%	89.3%	91.8%	98.2%	103%	103%	–	53.1%	93.8%	94.1%	103%	105%	67.3%	94.8%	101%	109%	95.2%	98.1%	101%	101%	96.9%	100%	105%	97.1%	96.6%	98.2%	93.5%
CO[C@@H](C(=O)N1Cc2[nH]nc(NC(=O)c3ccc(N4CCN(C)CC4)cc3)c2C1)c1ccccc1 [Danusertib] (100 nM)	99%	101%	97.5%	69.4%	62.2%	86.5%	97.1%	111%	102%	93.8%	109%	98.2%	108%	–	98.2%	97.7%	69.6%	104%	98.6%	92.7%	89%	57.7%	82.5%	95.5%	100%	91.4%	105%	96.8%	96.4%	97%	84.6%	94.8%	101%	133%	50.5%	67.1%	82.5%
O=S(=O)(c1cccc2cnccc12)N1CCCNCC1 [Fasudil] (500 nM)	98.3%	91.3%	100%	69.2%	102%	95.6%	100%	75%	101%	83.3%	102%	104%	95%	101%	–	99.9%	78.7%	91.7%	98.3%	101%	97.9%	105%	85.6%	112%	106%	101%	107%	100%	105%	104%	90.7%	103%	103%	112%	101%	108%	101%
Nc1cccc2c1CN(C1CCC(=O)NC1=O)C2=O (stereo not given) [Lenalidomide] (100 nM)	101%	99.6%	97.4%	104%	76.4%	101%	101%	92.4%	107%	–	100%	109%	77.9%	105%	107%	100%	102%	107%	103%	103%	93.3%	105%	69.2%	100%	104%	99.1%	111%	95.3%	102%	101%	99.3%	94.3%	93.2%	103%	111%	103%	98.4%
Nc1ccccc1NC(=O)c1ccc(CNc2nccc(-c3cccnc3)n2)cc1 [Mocetinostat] (100 nM)	99.1%	99.1%	93.3%	–	82%	97.4%	99.1%	101%	95.8%	–	104%	112%	93.1%	89.2%	96.4%	98.1%	104%	97.5%	91.5%	106%	102%	99%	78.3%	93.3%	107%	102%	97.2%	86.1%	88.7%	93.2%	157%	97.5%	90.7%	99.4%	90.6%	92.6%	115%
Cc1ccc(Nc2nccc(N(C)c3ccc4c(C)n(C)nc4c3)n2)cc1S(N)(=O)=O [Pazopanib] (100 nM)	96.2%	98.1%	95%	96%	104%	103%	101%	98%	112%	66.2%	109%	107%	72.7%	100%	94.2%	97.4%	–	104%	107%	102%	95.9%	112%	96.7%	104%	100%	105%	103%	99%	101%	103%	97.3%	98.7%	103%	108%	104%	103%	100%
O=C(NC[C@H](O)CO)c1ccncc1Nc1ccc(I)cc1F [Pimasertib] (100 nM)	98%	59.3%	96.5%	107%	107%	91.4%	69.4%	99.8%	118%	101%	104%	113%	98.9%	59.1%	–	99.4%	108%	107%	81.9%	103%	92.4%	90.4%	73.7%	82.4%	4.09%	94.7%	85.2%	89.2%	67.1%	88.9%	41.7%	83.5%	97.5%	112%	95.3%	103%	94%
